Experimental data published in US20040208864A1, “Methods of improving health-related quality of life in individuals with systemic lupus erythematosus” (priority 2002, published 2004).
Entries after “also recorded” stand apart in the source; their conditions may differ. Like-named read-outs stand apart in the source and are kept apart here.

How the values were obtained:
anti-dsDNA [1] = conditions: murine models of SLE; cited from earlier work
anti-dsDNA antibodies = assay: Anti-dsDNA antibody levels (Farr assay), Phase II/III study; assay type: in vivo, human; conditions: for Frequency of patients with sustained reductions in anti-dsDNA antibodies compared with placebo: Phase II/III (90-05), sustained = at least 10% below baseline for at least 2/3 of values
Protocol: Two studies (Phase II/III or 90-05, and Phase III or 90-09) were conducted as described in Examples 1-2 and 12. […] Patients completed the SF-36® assessment at entry, followed by three additional time points in the trial depending on how long they participated. […] The Phase II/III trial enrolled 198 lupus patients with high-affinity antibodies who were treated for up to 18 months.
Patients selection, duration of treatment, assay type were in these studies are further detailed in Table 5. All laboratory values were determined at a central laboratory. Baseline anti-dsDNA antibody levels were calculated as the mean of the last 2 determinations prior to initial administration of the study drug. Baseline values for all other laboratory measures were determined immediately before administration of the study drug. The upper limit of normal for the anti-dsDNA antibody assay at the central laboratory was 5 IU/ml.
(Sustained reduction of 10% was based on the percent coefficient of variation of the Farr assay as reported in the assay labeling. At least ⅔ of observations were required to meet this criterion to assure the majority of values were represented for a patient.) All anti-dsDNA antibody values collected were used to determine if a patient met the criterion for sustained reduction. Anti-dsDNA antibody values subsequent to HDCC were considered treatment failures and these values were imputed to have a value equivalent to baseline.

anti-dsDNA [2] = conditions: patients with SLE; cited from earlier work
SLE patients = assay: Documented renal flares, Phase II/III study; assay type: in vivo, human
Protocol: The primary endpoint was the time to a documented renal flare, defined as reproducible increases from baseline in 24-hr proteinuria or serum creatinine >20% or at least 0.3 mg/dL, whichever was greater, accompanied by proteinuria, hematuria and/or red cell casts; or new onset or reproducible increase in hematuria accompanied by either an increase in 24-hr proteinuria or new red cell casts. Secondary outcome measures included the number of renal flares, time to institution of therapy with high dose corticosteroids (HDCC) and/or cyclophosphamide, incidence of treatment with HDCC and/or cyclophosphamide, and number of major SLE flares. HDCC was defined as an increase in oral, intravenous or intramuscular prednisone (or prednisone equivalent) greater than or equal to 15 mg per day from baseline to a dose greater than 20 mg per day for more than two days or any dose exceeding 200 mg in a single day. Topical, intra-articular, intra-lesional, or intra-ocular corticosteroid administration was excluded.
The incidences of renal flares in patients of both sustained reduction group and the other group were documented and the results are shown in Table 7 for Phase III and Table 8 for Phase II/III.

Q: What does the source list for “abetimus sodium (sense GTGTGTGTGTGTGTGTGTGT; antisense CACACACACACACACACACA; sense: DNA, backbone not given here; antisense: DNA, backbone and methylation of C not given here; four deoxynucleotide duplexes bound to triethylene glycol valency platform) [LJP 394, tetravalent conjugate: four (CA)10.(TG)10 double-stranded 20-mer oligonucleotides on a triethylene glycol based valency platform]”?
A: Effect on anti-dsDNA titers (anti-dsDNA [1]): selectively reduces anti-dsDNA titers; # Patients with sustained reduction (anti-dsDNA antibodies; Phase II/III): 54; # Patients, Other (no sustained reduction) (anti-dsDNA antibodies; Phase II/III): 38; Frequency of patients with sustained reductions in anti-dsDNA antibodies compared with placebo (anti-dsDNA antibodies): higher frequency; also recorded: more frequent; Frequency of patients with sustained reductions in anti-dsDNA antibodies compared with placebo (anti-dsDNA antibodies; listed as LJP394): Four times as many; Change in anti-dsDNA antibodies from baseline compared with placebo (anti-dsDNA antibodies; Phase II/III, p<0.0001): statistically significant decrease; Effect on anti-dsDNA titers (anti-dsDNA [2]): selectively reduces anti-dsDNA titers; # Renal flares in Other patients (SLE patients; Phase II/III): 6; # Renal flares in patients with sustained reduction (SLE patients; Phase II/III): 1; Time to and number of renal flares compared with placebo (SLE patients; high affinity population): significant reduction; Time to renal flare between treatment groups (SLE patients; intent-to-treat population, interim analysis): unlikely to reach statistical significance
